Patent US8779158B2, “Trisubstituted pyrazoles as acetylcholine receptor modulators” (Janssen Pharmaceutica NV, priority 2008, dated 2014)

Columns and labels:
[1] = biological target: T1, hα7-wt nAChR (Homo sapiens, UniProt P36544); assay: Ca2+ flux imaging (FDSS) (Protocol B), potentiation of the choline response; type: cell-based; conditions: Ca2+ assay as described in D.1; for EC50: "<5" = activity did not reach a top plateau at maximal concentration; for Emax: read-out: % Efficacy
T1 construct: expressed in transfected cells
T1 sequence (P36544 23-502): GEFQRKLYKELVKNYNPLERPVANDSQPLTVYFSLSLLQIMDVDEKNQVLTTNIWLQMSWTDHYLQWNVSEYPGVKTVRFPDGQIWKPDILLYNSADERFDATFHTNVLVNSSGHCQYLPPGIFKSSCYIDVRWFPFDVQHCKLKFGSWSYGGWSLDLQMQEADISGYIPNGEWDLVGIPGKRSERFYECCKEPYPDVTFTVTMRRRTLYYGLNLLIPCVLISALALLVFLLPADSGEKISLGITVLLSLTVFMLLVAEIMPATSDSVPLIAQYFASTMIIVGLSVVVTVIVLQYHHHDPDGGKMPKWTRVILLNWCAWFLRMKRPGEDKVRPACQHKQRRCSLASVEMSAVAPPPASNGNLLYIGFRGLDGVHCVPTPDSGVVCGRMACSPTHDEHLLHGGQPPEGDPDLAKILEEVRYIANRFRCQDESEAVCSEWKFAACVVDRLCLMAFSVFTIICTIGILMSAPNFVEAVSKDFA
In short: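 Cells expressing hα7-wt nAChR, loaded with fluo-4AM (2 μM final) in HBSS with 10 mM HEPES, 5 mM CaCl2, 0.1% BSA and probenecid; compound (0.01–30 μM) added up to 10 min before 100 μM choline. Peak fluorescence potentiation relative to choline alone (100%); EC50 from sigmoidal curve.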

[2] = biological target: T2, hα7-wt nAChR-expressing GH4C1 cells (Homo sapiens, UniProt P36544); assay: Patch-clamp current recording (whole-cell voltage clamp), potentiation of the choline current and PAM type; type: cell-based; set-up: key: Type 0 compounds minimally enhance the effect size of the current elicited by 1 mM choline.; Type 1 compounds enhance the effect size of the current elicited by 1 mM choline but minimally alter the kinetics of the receptor.; Type 2 compounds enhance the effect size of the current elicited by 1 mM choline while reducing the rate and/or the extent of desensitization.; Type 3 compounds enhance the effect size of the current elicited by 1 mM choline. When tested at higher concentrations up to 10 μM they completely inhibit desensitization, in particular a 1 mM choline application of 250 milliseconds.; Type 4 compounds allow for an initial desensitization of the receptor followed by a re-opening of the receptor during agonist application; conditions: 1 mM choline
T2 construct: expressed in transfected cells
T2 sequence (P36544 23-502): as above
Method: The compounds of the present invention are classified as type 1-4, based on qualitative kinetic properties, as determined by whole-cell voltage-clamp recordings. This classification is based on the effect of an α7 PAM compound, as described hereinbefore, on the signal elicited by an agonist application. In particular, said agonist is choline at a concentration of 1 mM. In a preferred experimental setting, said α7 PAM compound and choline are simultaneously applied to the cell, as described hereinafter. Desensitization is defined as the closure of the receptor upon activation during the application of the agonist in whole-cell voltage-clamp electrophysiology measurements seen as the reduction of the […] current after initial activation by the agonist.
The definition of the PAM types 1-4 is described hereinafter: • Type 0 compounds minimally enhance the effect size of the current elicited by 1 mM choline. • Type 1 compounds enhance the effect size of the current elicited by 1 mM choline but minimally alter the kinetics of the receptor. In particular, the rate and the extent of desensitization, elicited by the agonist, is not affected. The compound-modulated response to 1 mM choline, therefore, is a close to linear scaling of the 1 mM choline response in absence of the α7 PAM compound. • Type 2 compounds enhance the effect size of the current elicited by 1 mM choline while reducing the rate and/or the extent of desensitization. • Type 3 compounds enhance the effect size of the current elicited by 1 mM choline. […] At low-potency concentrations of the α7 PAM compound, the agonist-induced activation, which is followed by desensitization, can still be separated from the compound-induced re-opening as an initial inward current-maximum. At higher potency concentrations of the α7 PAM compound, the re-opening occurs faster than the closure due to desensitization so that the initial current-maximum disappears.
A compound was considered to have interesting PAM-like activity when the potentiation of the peak current was at least 200% compared to the control choline response (=100%). Such compounds are classified as belonging to a particular PAM type in the Experimental Part. Compounds not meeting the condition are not classified as belonging to a particular PAM-type.
The compounds also have a potentiating effect on the response to choline when measured by whole-cell patch clamp electrophysiology in GH4C1 cells stably over-expressing the human wild-type α7 receptor.
Patch-Clamp Current Recording
Patch-clamp recording from mammalian cells has provided a powerful means of assessing the function of membrane-bound proteins thought to be subunits of ligand-gated ion channels. Activation of such proteins by endogenous or exogenous ligands cause opening of a pore associated with the receptor through which ions flow down their electrochemical gradient. In the case of the hα7-wt nAChR-expressing GH4C1 recombinant cell line the preferential permeability to calcium of this receptor means that calcium flows into the cell upon activation by ACh, choline and other nicotinic ligands giving rise to a calcium current. Since this receptor rapidly desensitizes in the presence of agonist it is important an application system is used which is capable of very rapid switching of solutions (<100 ms) to prevent partial or full desensitisation of receptor responses coincident with the time of agonist application. Consequently, a second convenient technique to assess the enhancement of nicotinic efficacy is patch-clamp recording from hα7-wt nAChR-expressing GH4C1 cells coupled with a rapid-application system.
• The external recording solution consisted of 152 mM NaCl, 5 mM KCl, 1 mM MgCl2, 1 mM Calcium, 10 mM HEPES; pH 7.3. […]

EC50 [1] | Emax [1] | SMILES | PAM type [2]
77.6 nM |  | COc1ccc(-c2cc(Nc3ccc(F)c(F)c3)nn2CCC(=O)N(C)C)cc1 [compound 102] | 4
245 nM |  | COc1cccc(-c2cc(Nc3ccc(F)c(F)c3)nn2CCC(=O)N(C)C)c1 [compound 103] | 2
2690 nM |  | COc1cc(Nc2cc(-c3ccnc(C)c3)n(CC(=O)NC3CC3)n2)cc(C(F)(F)F)c1 [compound 104] | 3
1950 nM |  | CNC(=O)Cn1nc(Nc2cccc(Cl)c2F)cc1-c1ccnc(COC)c1 [compound 106] | 2
1860 nM | 907% | CNC(=O)Cn1nc(Nc2ccc(F)c(F)c2F)cc1-c1ccnc(C)c1 [compound 107] | 2
1860 nM |  | CCNC(=O)Cn1nc(Nc2cc(Cl)cc(OC)c2)cc1-c1ccnc(C)c1 [compound 108] | 2
1780 nM |  | COc1cc(Cl)cc(Nc2cc(-c3ccnc(C)c3)n(CC(=O)NC3CC3)n2)c1 [compound 110] | 2
1700 nM |  | CCNC(=O)Cn1nc(Nc2cccc(Cl)c2)cc1-c1ccnc(C)c1 [compound 111] | 2
1510 nM |  | CNC(=O)Cn1nc(Nc2ccc3c(c2)OC(F)(F)O3)cc1-c1ccnc(COC)c1 [compound 112] | 4
1170 nM | 633% | CC[C@H](O)Cn1nc(Nc2cccc(Cl)c2F)cc1-c1ccnc(C)c1 [compound 118] | 0
1100 nM |  | Cc1cc(-c2cc(Nc3ccc(F)c(F)c3)nn2CCC(=O)N(C)C)cc(C)n1 [compound 119] | 2
1070 nM |  | CC[C@H](O)Cn1nc(Nc2ccc(F)c(F)c2F)cc1-c1ccnc(COC)c1 [compound 121] | 2
1020 nM |  | CC[C@H](O)Cn1nc(Nc2cc(Cl)cc(OC)c2)cc1-c1ccnc(C)c1 [compound 122] | 1
1000 nM |  | Cc1cc(-c2cc(Nc3cccc(Cl)c3)nn2CC(=O)NC2CC2)ccn1 [compound 123] | 2
977 nM |  | Cc1cc(-c2cc(Nc3cccc(Cl)c3F)nn2CCC(=O)N(C)C)ccn1 [compound 124] | 1
933 nM | 972% | CCNC(=O)Cn1nc(Nc2ccc(F)c(F)c2F)cc1-c1ccnc(C)c1 [compound 125] | 2
912 nM |  | COc1cc(Cl)cc(Nc2cc(-c3ccnc(C)c3)n(CCC(=O)N(C)C)n2)c1 [compound 126] | 2
851 nM | 643% | CCNC(=O)Cn1nc(Nc2cc(F)c(F)c(F)c2)cc1-c1ccnc(C)c1 [compound 128] | 2
813 nM | 632% | CNC(=O)Cn1nc(Nc2ccc3c(c2)OC(F)(F)O3)cc1-c1cc(C)nc(C)c1 [compound 130] | 2
813 nM |  | COc1cc(Nc2cc(-c3ccnc(C)c3)n(CC(=O)NCC3CC3)n2)cc(C(F)(F)F)c1 [compound 131] | 2
794 nM |  | COc1cc(Cl)cc(Nc2cc(-c3ccnc(C)c3)n(CC(=O)NCC3CC3)n2)c1 [compound 132] | 2
759 nM |  | CCNc1cc(-c2cc(Nc3ccc(F)c(F)c3F)nn2C[C@@H](O)CC)ccn1 [compound 135] | 1

EC50 [1] | Emax [1] | SMILES | PAM type [2]
646 nM |  | CC[C@H](O)Cn1nc(Nc2cccc(Cl)c2)cc1-c1ccnc(COC)c1 [compound 136] | 1
631 nM | 946% | CCNC(=O)Cn1nc(Nc2cccc(Cl)c2F)cc1-c1ccnc(C)c1 [compound 137] | 2
1000 nM |  | CCNC(=O)Cn1nc(Nc2cc(OC)cc(C(F)(F)F)c2)cc1-c1cc(C)nc(C)c1 [compound 140] | 2
617 nM | 816% | Cc1cc(-c2cc(Nc3cc(F)c(F)c(F)c3)nn2CCC(=O)N(C)C)ccn1 [compound 142] | 2
575 nM |  | COc1cc(Nc2cc(-c3ccnc(C)c3)n(CCC(=O)N(C)C)n2)cc(C(F)(F)F)c1 [compound 143] | 4
479 nM | 736% | Cc1cc(-c2cc(Nc3ccc4c(c3)OC(F)(F)O4)nn2CC(=O)NC2CC2)cc(C)n1 [compound 145] | 2
447 nM |  | Cc1cc(-c2cc(Nc3cccc(Cl)c3)nn2CCC(=O)N(C)C)ccn1 [compound 146] | 2
437 nM |  | COCc1cc(-c2cc(Nc3cccc(Cl)c3)nn2CCC(=O)N(C)C)ccn1 [compound 149] | 4
550 nM | 749% | CCNC(=O)Cn1nc(Nc2ccc(F)c(F)c2)cc1-c1cc(C)nc(C)c1 [compound 151] | 2
468 nM | 856% | CCNC(=O)Cn1nc(Nc2ccc(F)c(C(F)(F)F)c2)cc1-c1cc(C)nc(C)c1 [compound 152] | 2
417 nM | 737% | CCNC(=O)Cn1nc(Nc2ccc3c(c2)OC(F)(F)O3)cc1-c1cc(C)nc(C)c1 [compound 153] | 2
525 nM | 901% | CCNC(=O)Cn1nc(Nc2cccc(Cl)c2F)cc1-c1cc(C)nc(C)c1 [compound 154] | 2
550 nM | 576% | CCNC(=O)Cn1nc(Nc2cccc(C(F)(F)F)c2)cc1-c1cc(C)nc(C)c1 [compound 155] | 2
363 nM | 503% | Cc1cc(-c2cc(Nc3ccc4c(c3)OC(F)(F)O4)nn2CCC(=O)N(C)C)cc(C)n1 [compound 157] | 2
363 nM | 509% | Cc1cc(-c2cc(Nc3ccc4c(c3)OC(F)(F)O4)nn2CC(=O)NC2CCC2)cc(C)n1 [compound 158] | 1
324 nM |  | Cc1cc(-c2cc(Nc3cccc(Cl)c3)nn2CC(=O)NCC2CC2)ccn1 [compound 163] | 2
309 nM | 482% | Cc1cc(-c2cc(Nc3ccc(F)c(F)c3F)nn2CC(=O)NCC2CC2)ccn1 [compound 164] | 2
363 nM | 738% | Cc1cc(-c2cc(Nc3cccc(OC(F)(F)F)c3)nn2CCC(=O)N(C)C)cc(C)n1 [compound 165] | 1
295 nM | 856% | Cc1cc(-c2cc(Nc3ccc(F)c(F)c3F)nn2CCC(=O)N(C)C)ccn1 [compound 166] | 2
263 nM | 778% | Cc1cc(-c2cc(Nc3cc(F)c(F)c(F)c3)nn2CC(=O)NCC2CC2)ccn1 [compound 168] | 2
186 nM | 783% | Cc1cc(-c2cc(Nc3cccc(Cl)c3F)nn2CC(=O)NCC2CC2)ccn1 [compound 170] | 2
135 nM | 401% | Cc1cc(-c2cc(Nc3cccc(Cl)c3F)nn2CCC(=O)N(C)C)cc(C)n1 [compound 173] | 1
